Experiment: xn = mol fraction of the nth substance listed

CCCCCC(=O)[O-].C[NH2+]Cc1ccccc1 + CN(C)C=O
viscosity [mPa·s], 101 kPa
Conditions	293.15 K	298.15 K	303.15 K	308.15 K	313.15 K	318.15 K	323.15 K	328.15 K
x1 = 0.004888	0.957	0.916	0.879	0.846	0.817	0.791	0.767	0.746
x1 = 0.008422	0.969	0.926	0.887	0.854	0.824	0.797	0.772	0.75
x1 = 0.0141	0.992	0.946	0.905	0.869	0.837	0.809	0.784	0.76
x1 = 0.01792	1.009	0.961	0.918	0.881	0.847	0.818	0.791	0.767
x1 = 0.02131	1.026	0.975	0.93	0.891	0.857	0.826	0.798	0.773
x1 = 0.02717	1.052	0.998	0.95	0.909	0.873	0.84	0.812	0.786
x1 = 0.03049	1.072	1.016	0.966	0.923	0.884	0.85	0.82	0.793
x1 = 0.03458	1.099	1.038	0.985	0.94	0.899	0.863	0.831	0.803

CCCCCCCCn1cc[n+](C)c1.[Cl-] + CO
101 kPa
Conditions	viscosity [mPa·s]
298.15 K, x1 = 0.0197	0.729
298.15 K, x2 = 0.3525	530
298.15 K, x2 = 0.4395	237
298.15 K, x2 = 0.5589	64.1
298.15 K, x2 = 0.8713	2.39
298.15 K, x2 = 0.8813	2.205
313.15 K, x2 = 0.5589	34.97
313.15 K, x2 = 0.8231	3.58
328.15 K, x2 = 0.4395	55.2
328.15 K, x2 = 0.8231	2.496

CCCC[n+]1ccc(C)cc1.F[B-](F)(F)F + CO
101 kPa
Conditions	viscosity [mPa·s]
298.15 K, x2 = 0	196
298.15 K, x2 = 0.4287	19.3
298.15 K, x2 = 0.5246	11.58
298.15 K, x2 = 0.9671	0.729
313.15 K, x2 = 0.4287	11.94
313.15 K, x2 = 0.718	2.98
313.15 K, x2 = 0.8803	1.13
323.15 K, x1 = 0.01507	0.447
323.15 K, x2 = 0.8313	1.31
323.15 K, x2 = 0.8803	0.972

CC[n+]1ccn(C)c1.N#C[S-] + CO
100 kPa
Conditions	electrical conductivity [S/m]	viscosity [mPa·s]
298.15 K, x1 = 0.5972	2.07	12.8
303.15 K, x1 = 0.3859	2.58	7
303.15 K, x1 = 1	–	20
308.15 K, x1 = 0.0988	2.57	1.9
308.15 K, x1 = 0.5006	2.65	7.9
308.15 K, x1 = 1	2.27	18
323.15 K, x1 = 0.1966	–	2.2
323.15 K, x1 = 0.3005	3.7	3.2
323.15 K, x1 = 0.804	3.13	9.1
323.15 K, x1 = 0.8997	3.08	10.4
323.15 K, x1 = 1	3.05	12

C[N+](C)(C)CCC[N+]1(C)CCCCC1.N#C[N-]C#N.N#C[N-]C#N + CO
100 kPa
Conditions	viscosity [mPa·s]
293.15 K, x1 = 0.5002	271
293.15 K, x1 = 0.6001	585
303.15 K, x1 = 0.2001	11.3
303.15 K, x1 = 0.3002	28.5
303.15 K, x1 = 0.5002	160
323.15 K, x1 = 0.0999	2.73
323.15 K, x1 = 0.3002	15.7
333.15 K, x1 = 0.3999	24.9
